Data taken from patent US10766914B2, “DNA alkylating agents” (OBI PHARMA, INC., priority 2015, dated 2020).
pIC50: −log10 of the molar value.

Columns and labels:
H460 cells = assay: Proliferation assay in H460 cells (2 hr exposure, AlamarBlue); format: cell-based, human; conditions: Homo sapiens, NCI-H460, 2 hrs exposure, wash, 70 hrs growth, read-out: IC 50 in proliferation assay in H460 cells
Summary of the method: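 H460 cells seeded at 4×10^3/well, grown 24 h, then exposed to compound for 2 h at 37 °C. Drug was washed off and cells were regrown 70 h in fresh medium. Viable cells were read by AlamarBlue, and IC50 was taken as the concentration giving 50% growth inhibition.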

[1] = test system: H460 non-small cell lung cancer xenograft tumor; assay: Example 4-A antitumor efficacy, ectopic H460 NSCLC xenograft model; format: in vivo, female nude mice (nu/nu)
From the text: (§1) Specific pathogen-free homozygous female nude mice (nu/nu, Charles River Laboratories) were used. Mice were given food and water ad libitum and housed in microisolator cages. Four to six week old animals were identified by microchips (Locus Technology, Manchester, Md., USA) at the time of the experiments. All animal studies were approved by the Institutional Animal Care and Use Committee at Threshold Pharmaceuticals, Inc.
(§2) All cell lines were from the American Type Culture Collection (ATCC, Rockville, Md., USA).
(§3) Cells were mixed with Matrigel (50% with exception for 30% in the H460) and 0.2 ml per mouse were subcutaneously implanted to the flank area of the animals. When tumor size reached 100-150 250 mm3, mice were randomized into experimental or vehicle groups with 10 mice/group and treatment was started (Day 1). The tested compounds were formulated in 5% DMSO in D5W. The regimens employed in the examples include IP, QD×5/wk (5 days on, 2 days off) as one cycle, for a total of 2 cycles; IP, once; IP, weekly for total 3 weeks; and IV, weekly for 3 weeks. Tumor growth and body weight were measured twice a week. Tumor volume was calculated as (length×width2)/2. Drug efficacy was assessed as Tumor Growth Inhibition (TGI) and Tumor Growth Delay (TGD). TGI was defined as (1−ΔT/ΔC)×100, where ΔT/ΔC presented the ratio of the change in mean (or median, if variation within the group was relatively large) tumor volume of the treated group and of the control group. TGD was calculated as the extra days for the treated tumor to reach 500 mm3 or 1000 mm3 as compared to the control group. Animals were culled when individual tumor size reached over 2000 mm3 or mean tumor volume exceeded 1000 mm3 in the group. Data are expressed as the mean±SEM. One-way analysis of variance with Dunnett post comparison test (GraphPad Prism 4) or two-tailed student's t-test were used for analysis. A P level <0.05 was considered statistically significant.
Compounds provided herein were tested in vivo human tumor xenograft models and compared to standard chemotherapeutic agents such as gemcitabine, nab-paclitaxel. […] The compound was dosed as follows: daily IP dosing: 5 doses then 2 days off then 5 more doses starting at 100 mm^3 tumors on day 1 (10 animals per group median tumor volume). It is contemplated that in some embodiments, the compounds provided herein are activated by human and not by mouse enzymes. The antitumor effects and the safety of administration are graphically illustrated in FIGS. 3-20 below.

[2] = Example 4-A body weight change, H460 xenograft study; format: in vivo, female nude mice (nu/nu); conditions: 40 mg/kg ip QD × 5/wk × 2 wks
Method: as §3, with “A P level <0.05 was considered statistically significant.” left out

[3] = test system: A 549 non-small cell lung xenograft; assay: Example 4-B antitumor efficacy, ectopic A549 NSCLC xenograft model; format: in vivo, female nude mice (nu/nu)
From the text: as §1, §2, §3
The dosing was as follows. Daily IP dosing: 5 doses then 2 days off then 5 more doses starting at 110 mm^3 tumors on day 1 (10 animals per group average tumor volume).
Doses were selected by first doing a toxicity test in CD1 mice as described above. The compounds were tested against Thio-tepa.

[4] = Example 4-B body weight change, A549 xenograft study; format: in vivo, female nude mice (nu/nu)
Method: as §3
Antitumor effects of compounds provided herein were determined on A 549 non-small cell lung xenograft model in comparison with a chemotherapy agent, thiotepa. The dosing was as follows. Daily IP dosing: 5 doses then 2 days off then 5 more doses starting at 110 mm^3 tumors on day 1 (10 animals per group average tumor volume). The antitumor effects and the safety of administration are graphically illustrated below.

[5] = test system: A375 melanoma human tumor xenograft; assay: Example 4-C antitumor efficacy, ectopic A375 melanoma xenograft model; format: in vivo, female nude mice (nu/nu); conditions: qd × 5 × 2, ip
From the text: as §1, §2, §3
his study employed an A375 melanoma human tumor xenograft model and various compounds provided herein were compared to thiotepa and the approved anti melanoma drug, nab-Paclitaxel.

[6] = Example 4-C body weight change, A375 xenograft study; format: in vivo, female nude mice (nu/nu); conditions: 40 mpk, qd × 5 × 2, ip
Method: as §3
his study employed an A375 melanoma human tumor xenograft model and various compounds provided herein were compared to thiotepa and the approved anti melanoma drug, nab-Paclitaxel. The antitumor effects and the safety of administration are graphically illustrated below.

[7] = test system: renal cell carcinoma 786-O xenograft; assay: Example 4-E antitumor efficacy, renal cell carcinoma 786-O xenograft model; format: in vivo, female nude mice (nu/nu); conditions: 40 mpk, qd × 5/wk × 2
From the text: as §1, §2
Cells were mixed with Matrigel (50% with exception for 30% in the H460) and 0.2 ml per mouse were subcutaneously implanted to the flank area of the animals. When tumor size reached 100-150 250 mm3, mice were randomized into experimental or vehicle groups with 10 mice/group and treatment was started (Day 1). The tested compounds were formulated in 5% DMSO in D5W. […] Tumor growth and body weight were measured twice a week. Tumor volume was calculated as (length×width2)/2. Drug efficacy was assessed as Tumor Growth Inhibition (TGI) and Tumor Growth Delay (TGD). […] TGD was calculated as the extra days for the treated tumor to reach 500 mm3 or 1000 mm3 as compared to the control group. […] Data are expressed as the mean±SEM. […]

[8] = Example 4-E body weight change, 786-O xenograft study; format: in vivo, female nude mice (nu/nu); conditions: 40 mpk, qd × 5/wk × 2
Method: as §3, with “The regimens employed in the examples include IP, QD×5/wk (5 days on, 2 days off) as one cycle, for a total of 2 cycles; IP, once; IP, weekly for total 3 weeks; and IV, weekly for 3 weeks.” left out
The compound TH-2768 was tested in a renal cell carcinoma 786-O model. The compound was dosed as follows. […]

H460 NSCLC xenograft [9] = assay: Example 4-F antitumor efficacy, ectopic H460 NSCLC xenograft model; format: in vivo, female nude mice (nu/nu); conditions: ip, once
From the text: as §1, §2, §3
(§4) The compounds TH-2953 and TH-3040 were tested in a H460 model. The compounds were dosed as follows. A dose-dependent TH-2953 was given IP once, from 6.25 to 100 mg/kg, comparing with daily IP: 5 doses then 2 days off then 5 more doses starting at 100 mm^3 tumors on day 1 (10 animals per group average tumor volume). TH-3040 was administered IP once. The antitumor effects and the safety of administration are graphically illustrated below.

[10] = Example 4-F body weight change, H460 xenograft study; format: in vivo, female nude mice (nu/nu); conditions: ip, once
Method: as §3, §4

H460 NSCLC xenograft [11] = assay: Example 4-G antitumor efficacy, ectopic H460 NSCLC xenograft model; format: in vivo, female nude mice (nu/nu); conditions: ip, Q7D × 3
From the text: as §1, §2, §3
(§5) The compounds TH-3040 and TH-3045 were tested in a H460 model. The compounds were dosed as follows. A dose-dependent TH-3040 or TH-3045 was given IP weekly for 3 weeks, from 5 to 45 mg/kg starting at 100 mm^3 tumors on day 1 (10 animals per group average tumor volume). The antitumor effects and the safety of administration are graphically illustrated below.

[12] = Example 4-G body weight change, H460 xenograft study; format: in vivo, female nude mice (nu/nu); conditions: ip, Q7D × 3
Method: as §3, §5

H460 NSCLC xenograft [13] = assay: Example 4-H antitumor efficacy, ectopic H460 NSCLC xenograft model; format: in vivo, female nude mice (nu/nu); conditions: ip, Q7D × 3
From the text: as §1, §2, §3
The compound TH-3040 was tested in a H460 model. The compound was dosed as follows: 5 or 1.5 mg/kg, IP, weekly for 3 weeks at 100 mm^3 tumors on day 1 (10 animals per group average tumor volume), comparing with nab-Paclitaxel. The antitumor effects and the safety of administration are graphically illustrated below.

[14] = Example 4-H body weight change, H460 xenograft study; format: in vivo, female nude mice (nu/nu); conditions: ip, Q7D × 3
Method: as §3, with “A P level <0.05 was considered statistically significant.” left out

AKR1C3 = molecular target: T1, AKR1C3 (Homo sapiens, UniProt P42330); conditions: background statement; cited from earlier work
T1 sequence (P42330 1-323): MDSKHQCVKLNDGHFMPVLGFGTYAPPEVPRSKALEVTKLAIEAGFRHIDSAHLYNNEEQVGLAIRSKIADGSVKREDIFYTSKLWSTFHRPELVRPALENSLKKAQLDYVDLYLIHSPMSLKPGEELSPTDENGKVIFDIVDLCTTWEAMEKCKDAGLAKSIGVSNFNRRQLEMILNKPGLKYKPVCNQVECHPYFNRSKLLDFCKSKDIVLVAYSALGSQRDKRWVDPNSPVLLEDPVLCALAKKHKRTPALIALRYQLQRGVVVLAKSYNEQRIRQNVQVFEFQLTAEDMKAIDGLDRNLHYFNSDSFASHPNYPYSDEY

[15] = background statement; cited from earlier work
[16] = 40 mg/kg ip QD × 5/wk × 2 wks, H460

CC(OP(=O)(N1CC1)N1CC1)c1ccc([N+](=O)[O-])c(Oc2ccccc2)c1 (stereo not drawn) [Compound 2768]
pIC50 (H460 cells): 7.40 | TGD 500 [1, 16]: 56 days | TGD 1000 [1, 16]: 62 days | TGI [1, 16]: 104.1% | antitumor effect as a monotherapy ([1]; H460 study, versus gemcitabine): superior to the effect of gemcitabine | Max. BW loss % [2]: 4.0% | TGD 500 ([3]; 40 mg/kg ip QD × 5/wk × 2 wks): >72 days | TGI ([3]; 40 mg/kg ip QD × 5/wk × 2 wks): 100.6% | TGD 500 ([3]; 80 mg/kg ip QD × 5/wk × 2 wks): >72 days | TGI ([3]; 80 mg/kg ip QD × 5/wk × 2 wks): 104.4% | Max. BW loss % ([4]; 40 mg/kg ip QD × 5/wk × 2 wks): 0.0% | Max. BW loss % ([4]; 80 mg/kg ip QD × 5/wk × 2 wks): 4.8% | TGD 500 ([5]; 40 mpk): 7 days | TGD 1000 ([5]; 40 mpk): 7 days | inhibition in vivo at 40 mg/kg ([5]; Mus musculus, A-375, 40 mpk, read-out: TGI): 36.7% | Max. BW loss % [6]: 0% | TGI ([7]; ip): 73.0% | Max. BW loss % ([8]; ip): 0.0%

C[C@H](OP(=O)(N1CC1)N1CC1)c1ccc([N+](=O)[O-])c(Oc2ccc(-c3ccccc3)cc2)c1 [Compound 3040]
pIC50 (H460 cells): 8.40 | TGD 500 (H460 NSCLC xenograft [9]; 25 mpk): 17 days | TGD 1000 (H460 NSCLC xenograft [9]; 25 mpk): 17 days | TGI (H460 NSCLC xenograft [9]; 25 mpk): 80.5% | TGD 500 (H460 NSCLC xenograft [9]; 100 mpk): 20 days | TGD 1000 (H460 NSCLC xenograft [9]; 100 mpk): 23 days | TGI (H460 NSCLC xenograft [9]; 100 mpk): 93.7% | Max. BW loss % ([10]; 25 mpk): 1.3% | Max. BW loss % ([10]; 100 mpk): 0.0% | TGD 500 (H460 NSCLC xenograft [11]; 5 mpk): 40 days | TGI (H460 NSCLC xenograft [11]; 5 mpk): 103.5% | TGD 500 (H460 NSCLC xenograft [11]; 15 mpk): 60 days | TGI (H460 NSCLC xenograft [11]; 15 mpk): 104.3% | TGD 500 (H460 NSCLC xenograft [11]; 45 mpk): 66 days | TGI (H460 NSCLC xenograft [11]; 45 mpk): 106.4% | Max BW loss ([12]; 5 mpk): 2.5% | Max BW loss ([12]; 15 mpk): 1.0% | Max BW loss ([12]; 45 mpk): 0.0% | TGD500, Days (vs. vehicle) (H460 NSCLC xenograft [13]; 1.5 mg/kg): 15 days | TGD1000, Days (vs. vehicle) (H460 NSCLC xenograft [13]; 1.5 mg/kg): 19 days | TGI (H460 NSCLC xenograft [13]; 1.5 mg/kg): 80.6% | TGD500, Days (vs. vehicle) (H460 NSCLC xenograft [13]; 5 mg/kg): 36 days | TGD1000, Days (vs. vehicle) (H460 NSCLC xenograft [13]; 5 mg/kg): 41 days | TGI (H460 NSCLC xenograft [13]; 5 mg/kg): 101.9% | Max. BW loss % ([14]; 1.5 mg/kg): 7.2% | Max. BW loss % ([14]; 5 mg/kg): 5.2%

CS(=O)(=O)OCCN(CCBr)c1c(C(=O)NCCOP(=O)(O)O)cc([N+](=O)[O-])cc1[N+](=O)[O-] [PR 104]
substrate for AKR1C3 (AKR1C3): weak substrate | efficacy in clinical trials [15]: ineffective

CCN(CC)CCNC(=O)c1c(C)[nH]c(/C=C2\C(=O)Nc3ccc(F)cc32)c1C [Sunitinib, sunitinib, reference compound]
TGI ([7]; po): 67.8% | Max. BW loss % ([8]; po): 0.3%
